We go through 23 compounds from US20210261512A1, “NOVEL COMPOUNDS” (INFLAZOME LIMITED, priority 2018, published 2021).

Each structure is given as a SMILES string.

For orientation: IC50 means the midpoint of a concentration-inhibition curve. Higher therefore signals lower potency.

For the assay, the target named is NLRP3 (Homo sapiens, UniProt Q96P20). As to the kind of experiment: THP-1 cells pyroptosis assay. The class given is cell-based. Further details: Seed THP-1 cells (25,000 cells/well) containing 1.0 μg/ml LPS; host or cells: THP-1. The conditions noted are these: LPS 1.0 μg/ml, nigericin 5 μM, resazurin readout, 10 μM top dose (Example 2: top dose of 30 μM). The procedure: THP-1 cells (ATCC #TIB-202) were grown in RPMI containing L-glutamine (Gibco #11835) supplemented with imM sodium pyruvate (Sigma #S8636) and penicillin (100 units/ml)/streptomycin (0.1 mg/ml) (Sigma #P4333) in 10% Fetal Bovine Serum (FBS) (Sigma #F0804). The cells were routinely passaged and grown to confluency (˜10^6 cells/ml). On the day of the experiment, THP-1 cells were harvested and resuspended into RPMI medium (without FBS). The cells were then counted and viability (>90%) checked by Trypan blue (Sigma #T8154). Appropriate dilutions were made to give a concentration of 625,000 cells/ml. To this diluted cell solution was added LPS (Sigma #L4524) to give a 1 μg/ml Final Assay Concentration (FAC). 40 μl of the final preparation was aliquoted into each well of a 96-well plate. The plate thus prepared was used for compound screening.
The following method step-by-step assay was followed for compound screening. • 1. Seed THP-1 cells (25,000 cells/well) containing 1.0 μg/ml LPS in 40 μl of RPMI medium (without FBS) in 96-well, black walled, clear bottom cell culture plates coated with poly-D-lysine (VWR #734-0317) • 2. Add 5 μl compound (8 points four-fold dilution or 8 points half-log dilution, with 10 μM top dose, unless stated otherwise) or vehicle (DMSO 0.1% FAC) to the appropriate wells • 3. Incubate for 3 hrs at 37° C. and 5% CO2 • 4. Add 5 μl nigericin (Sigma #N7143) (FAC 5 μM) to all wells • 5. Incubate for 1 hr at 37° C. and 5% CO2 • 6. At the end of the incubation period, spin plates at 300×g for 3 mins and remove supernatant • 7. Then add 50 μl of resazurin (Sigma #R^7017) (FAC 100 μM resazurin in RPMI medium without FBS) and incubate plates for a further 1-2 hrs at 37° C. and 5% CO2 • 8. Plates were read in an Envision reader at Ex 560 nm and Em 590 nm • 9. IC50 data is fitted to a non-linear regression equation (log inhibitor vs response-variable slope 4-parameters)
A general note: The colour change of resazurin is a common sign of viable cells or microbes.

Chain of NLRP3 (Q96P20 whole entry): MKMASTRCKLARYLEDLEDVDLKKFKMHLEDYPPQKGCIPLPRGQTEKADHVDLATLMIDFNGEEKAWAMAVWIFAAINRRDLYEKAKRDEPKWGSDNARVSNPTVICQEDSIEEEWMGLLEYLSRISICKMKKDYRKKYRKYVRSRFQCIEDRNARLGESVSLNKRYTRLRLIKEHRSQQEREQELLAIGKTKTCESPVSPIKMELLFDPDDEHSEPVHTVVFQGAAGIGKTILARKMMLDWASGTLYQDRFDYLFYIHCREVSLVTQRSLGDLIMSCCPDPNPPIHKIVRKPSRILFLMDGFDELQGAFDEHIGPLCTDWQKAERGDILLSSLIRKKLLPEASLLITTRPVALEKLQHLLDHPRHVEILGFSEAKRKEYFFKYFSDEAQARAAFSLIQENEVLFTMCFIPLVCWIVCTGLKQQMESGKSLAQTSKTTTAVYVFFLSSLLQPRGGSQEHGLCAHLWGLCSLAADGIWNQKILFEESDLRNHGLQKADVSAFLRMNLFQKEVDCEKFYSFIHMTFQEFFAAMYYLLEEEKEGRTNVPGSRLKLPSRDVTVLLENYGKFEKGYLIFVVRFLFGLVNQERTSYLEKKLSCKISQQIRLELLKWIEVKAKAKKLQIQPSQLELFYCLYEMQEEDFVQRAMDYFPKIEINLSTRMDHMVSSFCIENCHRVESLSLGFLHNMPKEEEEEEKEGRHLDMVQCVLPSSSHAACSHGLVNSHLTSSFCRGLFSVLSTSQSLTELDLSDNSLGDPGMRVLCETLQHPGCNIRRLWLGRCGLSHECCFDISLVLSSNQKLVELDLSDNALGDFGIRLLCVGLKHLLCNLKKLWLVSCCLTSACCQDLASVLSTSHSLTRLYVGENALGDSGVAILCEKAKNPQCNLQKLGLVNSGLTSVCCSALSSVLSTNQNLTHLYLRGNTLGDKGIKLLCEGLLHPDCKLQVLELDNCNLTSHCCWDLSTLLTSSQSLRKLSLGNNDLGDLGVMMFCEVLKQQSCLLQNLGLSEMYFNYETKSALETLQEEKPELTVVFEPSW

The compound `O=S(=O)(c1ccccc1)c1nnc(Nc2c(-c3ccncc3)ccc3c2CCC3)[nH]1` [Example 189, 5-(phenylsulfonyl)-N-(5-(pyridin-4-yl)-2,3-dihydro-1H-inden-4-yl)-4H-1,2,4-triazol-3-amine] gave an IC50 not above 10 µM.

On to `Cc1cccc(S(=O)(=O)c2nnc(Nc3c4c(cc5c3CCC5)CCC4)[nH]2)c1` [Example 174, N-(1,2,3,5,6,7-hexahydro-s-indacen-4-yl)-5-(m-tolylsulfonyl)-4H-1,2,4-triazol-3-amine], for which the IC50 is not above 5 µM.

For the compound `CS(=O)(=O)c1nnc(Nc2c3c(c(C#N)c4c2CCC4)CCC3)[nH]1` [Example 322, 8-((5-(methylsulfonyl)-4H-1,2,4-triazol-3-yl)amino)-1,2,3,5,6,7-hexahydro-s-indacene-4-carbonitrile], the IC50 was not above 5 µM.

As to `O=c1cccc(CNS(=O)(=O)c2nnc(Nc3c4c(cc5c3CCC5)CCC4)[nH]2)[nH]1` [Example 103, 5-((1,2,3,5,6,7-hexahydro-s-indacen-4-yl)amino)-N-((6-oxo-1,6-dihydropyridin-2-yl)methyl)-4H-1,2,4-triazole-3-sulfonamide], the IC50 is not above 5 µM.

Compound `CCN(CC)CCS(=O)(=O)Cc1nnc(Nc2c3c(cc4c2CCC4)CCC3)[nH]1` [Example 373, 5-(((2-(diethylamino)ethyl)sulfonyl)methyl)-N-(1,2,3,5,6,7-hexahydro-s-indacen-4-yl)-4H-1,2,4-triazol-3-amine] showed an IC50 not above 10 µM.

The compound `O=S(=O)(Cc1cccnc1)c1nnc(Nc2c3c(cc4c2CCC4)CCC3)[nH]1` [Example 73, N-(1,2,3,5,6,7-hexahydro-s-indacen-4-yl)-3-((pyridin-3-ylmethyl)sulfonyl)-1H-1,2,4-triazol-5-amine] had an IC50 not above 10 µM.

Turning to `CN1CCCN(S(=O)(=O)c2nnc(Nc3c4c(cc5c3CCC5)CCC4)[nH]2)CC1` [Example 273, N-(1,2,3,5,6,7-hexahydro-s-indacen-4-yl)-5-((4-methyl-1,4-diazepan-1-yl)sulfonyl)-4H-1,2,4-triazol-3-amine], the IC50 is not above 10 µM.

Regarding `O=S(=O)(c1ccn(CCO)n1)c1nnc(Nc2c3c(cc4c2CCC4)CCC3)[nH]1` [Example 334, 2-(3-((5-((1,2,3,5,6,7-hexahydro-s-indacen-4-yl)amino)-4H-1,2,4-triazol-3-yl)sulfonyl)-1H-pyrazol-1-yl)ethanol], the IC50 is not above 1 µM.

With `O=S(=O)(c1nnc(Nc2c3c(cc4c2CCC4)CCC3)[nH]1)N1CC2(CCN(CC(F)(F)F)C2)C1` [Example 263, N-(1,2,3,5,6,7-hexahydro-s-indacen-4-yl)-5-((6-(2,2,2-trifluoroethyl)-2,6-diazaspiro[3.4]octan-2-yl)sulfonyl)-4H-1,2,4-triazol-3-amine], the IC50 was not above 5 µM.

The compound `O=S(=O)(NCc1ccncc1)c1nnc(Nc2c3c(cc4c2CCC4)CCC3)[nH]1` [Example 96, 5-((1,2,3,5,6,7-hexahydro-s-indacen-4-yl)amino)-N-(pyridin-4-ylmethyl)-4H-1,2,4-triazole-3-sulfonamide] yielded an IC50 not above 5 µM.

`CC(C)c1cc(F)cc(-c2ccnc(OC3CCN(C)CC3)c2)c1Nc1nnc(S(C)(=O)=O)[nH]1` [Example 369, N-(4-fluoro-2-isopropyl-6-(2-((1-methylpiperidin-4-yl)oxy)pyridin-4-yl)phenyl)-5-(methylsulfonyl)-4H-1,2,4-triazol-3-amine] returned an IC50 not above 5 µM.

On to `O=S(=O)(c1nnc(Nc2c3c(cc4c2CCC4)CCC3)[nH]1)N1CCC(F)(F)CC1` [Example 297, 5-((4,4-difluoropiperidin-1-yl)sulfonyl)-N-(1,2,3,5,6,7-hexahydro-s-indacen-4-yl)-4H-1,2,4-triazol-3-amine], for which the IC50 was not above 10 µM.

`O=S(=O)(c1nnc(Nc2c3c(cc4c2CCC4)CCC3)[nH]1)N1CCC(O)C1` (centres unmarked) [Example 123, 1-((5-((1,2,3,5,6,7-hexahydro-s-indacen-4-yl)amino)-4H-1,2,4-triazol-3-yl)sulfonyl)pyrrolidin-3-ol] returned an IC50 not above 5 µM.

The compound `O=S(=O)(c1ccnnc1)c1n[nH]c(Nc2c3c(cc4c2CCC4)CCC3)n1` [Example 168, N-(1,2,3,5,6,7-hexahydro-s-indacen-4-yl)-3-(pyridazin-4-ylsulfonyl)-1H-1,2,4-triazol-5-amine] gave an IC50 not above 5 µM.

In turn, `Cc1cc2c(c(Nc3nnc(S(C)(=O)=O)[nH]3)c1-c1ccnc(O[C@H]3CC[C@H](N(C)C)CC3)c1)CCC2` [Example 365, N-(5-(2-(((1r,4r)-4-(dimethylamino)cyclohexyl)oxy)pyridin-4-yl)-6-methyl-2,3-dihydro-1H-inden-4-yl)-5-(methylsulfonyl)-4H-1,2,4-triazol-3-amine] came in with an IC50 not above 5 µM.

For the compound `CN1CCN(CCNS(=O)(=O)c2nnc(Nc3c4c(cc5c3CCC5)CCC4)[nH]2)CC1` [Example 131, 5-((1,2,3,5,6,7-hexahydro-s-indacen-4-yl)amino)-N-(2-(4-methylpiperazin-1-yl)ethyl)-4H-1,2,4-triazole-3-sulfonamide], the IC50 is not above 5 µM.

On to `CC(C)(O)CCNS(=O)(=O)c1nnc(Nc2c3c(cc4c2CCC4)CCC3)[nH]1` [Example 116, 5-((1,2,3,5,6,7-hexahydro-s-indacen-4-yl)amino)-N-(3-hydroxy-3-methylbutyl)-4H-1,2,4-triazole-3-sulfonamide], for which the IC50 is not above 5 µM.

Turning to `O=S(=O)(c1nnc(Nc2c3c(cc4c2CCC4)CCC3)[nH]1)C1CCCC1` [Example 64, 3-(Cyclopentylsulfonyl)-N-(1,2,3,5,6,7-hexahydro-s-indacen-4-yl)-1H-1,2,4-triazol-5-amine], the IC50 was not above 5 µM.

Consider `COCC(C)Oc1cc(-c2c(C)cc3c(c2Nc2nnc(S(C)(=O)=O)[nH]2)CCC3)ccn1` (centres unmarked) [Example 363, N-(5-(2-((1-methoxypropan-2-yl)oxy)-pyridin-4-yl)-6-methyl-2,3-dihydro-1H-inden-4-yl)-5-(methylsulfonyl)-4H-1,2,4-triazol-3-amine], for which the IC50 was not above 5 µM.

Compound `CC(C)CCNS(=O)(=O)c1nnc(Nc2c3c(cc4c2CCC4)CCC3)[nH]1` [Example 82, 5-((1,2,3,5,6,7-hexahydro-s-indacen-4-yl)amino)-N-isopentyl-1H-1,2,4-triazole-3-sulfonamide] showed an IC50 not above 10 µM.

Compound `CC(C)c1cc(F)cc(C(C)C)c1Cc1nnc(S(=O)(=O)N2CCC(CN(C)C)C2)[nH]1` (centres unmarked) [Example 161, 1-(1-((5-(4-fluoro-2,6-diisopropylbenzyl)-4H-1,2,4-triazol-3-yl)-sulfonyl)pyrrolidin-3-yl)-N,N-dimethylmethanamine] had an IC50 not above 5 µM.

With `COC1(c2cc([S+]([O-])c3nnc(Nc4c5c(cc6c4CCC6)CCC5)[nH]3)nn2C(C)C)COC1` (centres unmarked) [Example 25, N-(1,2,3,5,6,7-hexahydro-s-indacen-4-yl)-5-((1-isopropyl-5-(3-methoxyoxetan-3-yl)-1H-pyrazol-3-yl)sulfinyl)-4H-1,2,4-triazol-3-amine], the IC50 was not above 10 µM.

In turn, `O=S(=O)(Cc1ccncc1)c1nnc(Nc2c3c(cc4c2CCC4)CCC3)[nH]1` [Example 72, N-(1,2,3,5,6,7-hexahydro-s-indacen-4-yl)-3-((pyridin-4-ylmethyl)sulfonyl)-1H-1,2,4-triazol-5-amine] had an IC50 not above 10 µM.
